In patent US5536822A, “γ-phosphate linked adenosine 5' triphosphate sepharose” (University of Virginia Alumni Patents Foundation, priority 1994, dated 1996):

How the values were obtained:
p42^mapk = target: T1, p42^mapk (Mus musculus, UniProt P63085); experiment: Inhibition constant of the ATP derivative / Km for ATP, p42^mapk assay; assay type: biochemical; settings: 20 μM ATP
T1 construct: made in house
Excerpt: (§1) [γ-^32 P] ATP was synthesized according to the procedure set forth in Johnson et al., Advances in Cyclic Nucleotide Research, 10:135-167 (1979). The catalytic subunit of cyclic-AMP-dependent protein kinase was purchased from Promega. p60^c-arc was obtained from the Department of Microbiology, University of Virginia. Recombinant p42^mapk was purified as described in Haystead et al., (1992) FEBS Lett., 306:17-22. STE7 antibody was obtained from the University of Vancouver, Canada.
(§2) The 42-kDa MAP kinase (p42^mapk) and MAPKK were assayed as described previously (Haystead et al. (1992) FEBS. Lett., 306:17-22). The cyclic-A kinase assays (30 μl) included 1 μg cyclic-A kinase, 2 mM Kemptide, 50 mM Hepes, pH 7.4, 1 mM dithiothreitol, 200 μM ATP, 5 mM MgCl2. […]
(§3) In order to assess the effectiveness of adenosine 5'-(γ-4-aminophenyl)triphosphate as an affinity ligand for protein kinases, the inhibition constants (Ki) of the derivative were determined for four different protein kinases, namely, p42^mapk, cyclic-A kinase, MAPKK and p60^c-arc (Table 1). […] This also facilitated comparisons for the relative binding constants determined with other ATP analogs (Flockhart et al. (1984) Eur. J. Biochem., 140:289-295; Hoppe et al. (1972) Eur. J. Biochem., 80:369-372; Taylor et al. (1990) Peptides and Protein Phosphorylation (Kemp et al.) pp 2-32, CRC Press).

MAPKK = target: T2, MAPKK (Oryctolagus cuniculus, UniProt P29678); experiment: Inhibition constant of the ATP derivative / Km for ATP, MAPKK assay; assay type: biochemical, rabbit
T2 construct: MAPKK, from rabbit skeletal muscle, was partially purified 600-fold; from tissue; host or cells: skeletal muscle (back and hind-limb) of a female New Zealand white rabbit
Method: A fed female New Zealand white rabbit was euthanized by lethal injection with phenobarbital via the marginal ear vein. The back and hind-limb skeletal muscle (300 g) were rapidly excised, minced and homogenized at 4° C. with 2.5 vol. solution C (50 mM 2-glycerophosphate, pH 7.3, 1.5 mM EGTA, 0.15 μM sodium orthovanidate, 1 mM dithiothreitol, 1 mM phenylmethanesulfonyl fluoride, 1 mM benzamidine) containing 6 μg/ml leupeptin. All subsequent steps were carried out at 4° C. […] The DEAE was packed into a glass column (20 cm×50 cm) washed with solution C until the absorbance at […] of the eluate was <0.005 absorbance. […]
as §3

p60^c-src = target: T3, p60^c-src (Homo sapiens, UniProt P12931); experiment: Inhibition constant of the ATP derivative / Km for ATP, p60^c-src assay (peptide substrate); assay type: biochemical; settings: 20 μM ATP
T3 construct: Department of Microbiology, University of Virginia (obtained from; not a purchase)
Excerpt: as §1, §2, §3

[1] = tested on: four different protein kinases, namely, p42^mapk, cyclic-A kinase, MAPKK and p60^c-arc; experiment: Inhibition of four protein kinases by the ATP derivative (summary over all enzymes); assay type: biochemical
Method: The 42-kDa MAP kinase (p42^mapk) and MAPKK were assayed as described previously (Haystead et al. (1992) FEBS. Lett., 306:17-22). The cyclic-A kinase assays (30 μl) included 1 μg cyclic-A kinase, 2 mM Kemptide, 50 mM Hepes, pH 7.4, 1 mM dithiothreitol, 200 μM ATP, 5 mM MgCl2. Reactions were terminated by spotting 25 μl assay mixture onto P81 paper as described in Haystead et al. (1992) FEBS Lett., 306:17-22. p60^c-arc assays were similar, except a 2 mM peptide (Rossomando et al., 1992) Proc. Natl. Acad. Sci., 89:5221-5225) was used as the substrate.
In order to assess the effectiveness of adenosine 5'-(γ-4-aminophenyl)triphosphate as an affinity ligand for protein kinases, the inhibition constants (Ki) of the derivative were determined for four different protein kinases, namely, p42^mapk, cyclic-A kinase, MAPKK and p60^c-arc (Table 1). The Ki was determined in the presence of 20 μM ATP. However, since the Km for ATP varied for each protein kinase tested, for comparative purposes it was convenient to determine the Ki /Km quotient (Table 1). This also facilitated comparisons for the relative binding constants determined with other ATP analogs (Flockhart et al. (1984) Eur. J. Biochem., 140:289-295; Hoppe et al. (1972) Eur. J. Biochem., 80:369-372; Taylor et al. (1990) Peptides and Protein Phosphorylation (Kemp et al.) pp 2-32, CRC Press).

Cyclic A kinase = Cyclic A kinase (Bos taurus, UniProt P00517); experiment: Inhibition constant of the ATP derivative / Km for ATP, cyclic-A kinase assay (Kemptide substrate)
[2] = [Mg^2+] reduced to levels equimolar with free ATP

T2 sequence (P29678 whole entry): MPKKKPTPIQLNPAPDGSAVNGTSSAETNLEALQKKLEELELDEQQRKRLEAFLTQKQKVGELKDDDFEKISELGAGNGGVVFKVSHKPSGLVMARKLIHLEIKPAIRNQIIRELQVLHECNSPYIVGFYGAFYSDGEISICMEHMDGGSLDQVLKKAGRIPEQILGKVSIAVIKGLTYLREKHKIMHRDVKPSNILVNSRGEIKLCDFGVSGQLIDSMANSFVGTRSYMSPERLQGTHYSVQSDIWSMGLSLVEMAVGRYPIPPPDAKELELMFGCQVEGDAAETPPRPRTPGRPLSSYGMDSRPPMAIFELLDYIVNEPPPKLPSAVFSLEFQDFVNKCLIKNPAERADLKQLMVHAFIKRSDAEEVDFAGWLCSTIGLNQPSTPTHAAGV
T3 sequence (P12931 whole entry): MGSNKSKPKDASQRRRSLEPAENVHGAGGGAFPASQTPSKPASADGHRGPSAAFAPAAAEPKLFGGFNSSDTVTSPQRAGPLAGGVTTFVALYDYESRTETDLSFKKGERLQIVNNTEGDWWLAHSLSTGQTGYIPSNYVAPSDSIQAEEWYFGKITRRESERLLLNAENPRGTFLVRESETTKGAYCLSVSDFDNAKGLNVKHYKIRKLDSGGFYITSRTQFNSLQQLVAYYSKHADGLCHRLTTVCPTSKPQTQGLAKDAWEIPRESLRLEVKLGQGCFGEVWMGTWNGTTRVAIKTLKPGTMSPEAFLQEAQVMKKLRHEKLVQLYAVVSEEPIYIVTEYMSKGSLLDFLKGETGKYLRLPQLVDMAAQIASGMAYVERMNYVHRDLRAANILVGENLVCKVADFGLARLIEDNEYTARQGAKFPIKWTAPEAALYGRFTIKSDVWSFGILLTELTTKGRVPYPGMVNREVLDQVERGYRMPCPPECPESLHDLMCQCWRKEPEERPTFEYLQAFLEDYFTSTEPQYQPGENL
T1 sequence (P63085 whole entry): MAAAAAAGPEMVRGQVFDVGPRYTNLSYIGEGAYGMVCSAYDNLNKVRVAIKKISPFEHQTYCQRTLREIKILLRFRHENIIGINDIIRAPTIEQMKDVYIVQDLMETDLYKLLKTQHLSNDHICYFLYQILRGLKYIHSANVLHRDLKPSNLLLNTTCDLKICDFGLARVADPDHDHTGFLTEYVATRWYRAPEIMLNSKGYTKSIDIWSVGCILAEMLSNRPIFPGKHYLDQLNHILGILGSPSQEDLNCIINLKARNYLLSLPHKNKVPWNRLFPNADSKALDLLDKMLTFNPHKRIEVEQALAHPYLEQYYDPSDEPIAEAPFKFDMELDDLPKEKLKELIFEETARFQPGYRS

SMILES: Nc1ccc(OP(=O)(O)OP(=O)(O)OP(=O)(O)OC[C@H]2O[C@@H](n3cnc4c(N)ncnc43)[C@H](O)[C@@H]2O)cc1 [adenosine-5'-(γ-4-aminophenyl)triphosphate]
- Ki /Km (p42^mapk; Km for ATP): 10.02
- Ki (p42^mapk; read-out: Ki ± SDM): 75.2 ± 8.2 µM
- Ki (MAPKK): 176 ± 22.1 µM
- Ki /Km (MAPKK; MAPKK, 20 μM ATP, Km for ATP): 15.20
- Ki /Km (p60^c-src; Km for ATP): 19.35
- Ki (p60^c-src; read-out: Ki ± SDM): 120 ± 13.6 µM
- competition with ATP ([1]; 20 μM ATP): competes with ATP
- Ki /Km quotient ([1]; 20 μM ATP, range over four enzymes): 10-20
- Ki ([1]; 20 μM ATP, range over four enzymes, read-out: apparent Ki values obtained against each enzyme): 75 to 180 µM
- effect on the Ki /Km quotient of reduced [Mg^2+] [1, 2]: no effect
- effect on the Ki of reduced [Mg^2+] [1, 2]: no effect
- Ki (Cyclic A kinase): 104 ± 11.6 µM
- Ki /Km (Cyclic A kinase; cyclic A kinase, 20 μM ATP, Km for ATP): 14.60
